Source: the supplement of paper PMC10307832

How the values were obtained:
Test in all cases: relative viability (nuclei count vs DMSO), 5 days (fraction); higher = more cells survive
Mirin + AZD7762 = compound: N=C1NC(=O)/C(=C/c2ccc(O)cc2)S1 [Mirin] + NC(=O)Nc1cc(-c2cccc(F)c2)sc1C(=O)N[C@H]1CCCNC1 [AZD7762] (partner 0.2 µM)
How it was run: (§1)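 After 5 days of treatment, lung cancer cells in 1536-well plates were fixed and stained in a single step (final 0.05% Triton X-100, 1% formaldehyde, 1 ug/ml Hoechst) and their nuclei counted on 4× images. Treatment had been applied by pin tool the day after seeding as one drug alone or as a fixed anchor-drug dose with five library-drug doses (not always all listed) in √10 steps. Relative viability is the nuclei count of treated wells divided by that of vehicle wells, and values are medians of duplicate plates.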

Mirin + Navitoclax = compound: N=C1NC(=O)/C(=C/c2ccc(O)cc2)S1 [Mirin] + CC1(C)CCC(c2ccc(Cl)cc2)=C(CN2CCN(c3ccc(C(=O)NS(=O)(=O)c4ccc(N[C@H](CCN5CCOCC5)CSc5ccccc5)c(S(=O)(=O)C(F)(F)F)c4)cc3)CC2)C1 [Navitoclax] (partner 0.5 µM)
How it was run: as §1

[1] = compound: CCn1c(-c2nonc2N)nc2cnc(Oc3cccc(NC(=O)c4ccc(OCCN5CCOCC5)cc4)c3)cc21 + Cc1cc(Nc2cc(N3CCN(C)CC3)nc(Sc3ccc(NC(=O)C4CC4)cc3)n2)n[nH]1 [Tozasertib] (partner 0.1 µM)
How it was run: as §1

[2] = compound: CCC1=CN=CN=C1N2CCN(CC2)CC3=NC4=C(N3)C=C(C=C4)C(F)(F)F + CC(=O)c1c(C)c2cnc(Nc3ccc(N4CCNCC4)cn3)nc2n(C2CCCC2)c1=O [Palbociclib] (partner 0.5 µM)
How it was run: as §1

Cell Line	relative viability (Mirin + AZD7762; first compound 0.25 µM)	relative viability (Mirin + AZD7762; first compound 0.7906 µM)	relative viability (Mirin + AZD7762; first compound 2.5 µM)	relative viability (Mirin + AZD7762; first compound 7.906 µM)	relative viability (Mirin + AZD7762; first compound 25 µM)	relative viability (Mirin + Navitoclax; first compound 0.25 µM)	relative viability (Mirin + Navitoclax; first compound 0.7906 µM)	relative viability (Mirin + Navitoclax; first compound 2.5 µM)	relative viability (Mirin + Navitoclax; first compound 7.906 µM)	relative viability (Mirin + Navitoclax; first compound 25 µM)	relative viability ([1]; first compound 0.04 µM)	relative viability ([1]; first compound 0.1265 µM)	relative viability ([1]; first compound 0.4 µM)	relative viability ([1]; first compound 1.265 µM)	relative viability ([1]; first compound 4 µM)	relative viability ([2]; first compound 0.04 µM)	relative viability ([2]; first compound 0.1265 µM)	relative viability ([2]; first compound 0.4 µM)	relative viability ([2]; first compound 1.265 µM)	relative viability ([2]; first compound 4 µM)
HOP-62	0.729	1.08	0.478	0.549	0.383	1.03	1.02	0.955	0.888	1.43	0.393	0.445	0.344	0.283	0.234	0.475	0.451	0.414	0.438	0.413
LC-2-ad	0.836	0.812	0.825	0.933	0.817	0.452	0.673	0.466	0.36	0.401	0.517	0.365	0.418	0.294	0.328	0.471	0.48	0.501	0.466	0.472
LCLC-97TM1	0.212		0.263		0.329	0.314	0.515	0.511	0.194	0.288	0.201	0.271	0.192	0.249	0.222	0.196	0.2	0.228	0.282	0.196
LK-2	0.22		0.338	0.209	0.185	0.752	0.625	0.799	0.588	0.525	0.198	0.159	0.173	0.179	0.171	0.685	0.469	0.752	0.381	0.594
LOU-NH91	0.799	0.782	0.754	0.713	0.854	0.681		0.673	0.718	0.76	0.631	0.518	0.45	0.353	0.369	0.523	0.565	0.541	0.542	0.558
LU99A	0.351	0.349	0.355	0.294	0.28	0.706	0.677	0.92	0.742	0.542	0.293	0.295	0.295	0.233	0.199	0.428	0.431	0.378	0.439	0.435
LXF-289	1.07	1.3	1.16	1.36	1.47	0.934	0.986	0.97	1.01	1.13	0.221	0.198	0.195	0.104	0.0834	0.624	0.583	0.615	0.635	0.559
NCI-H23	0.221		0.259	0.198	0.131	0.941		0.783	0.682	0.71	0.364	0.34	0.333	0.291	0.322	0.496	0.584	0.541	0.42	0.531
NCI-H322M	0.508	0.653	0.51	0.551	0.57	1.26	1.28	1.25	1.22	1.31	0.481	0.466	0.459	0.366	0.403	0.455	0.452	0.514	0.489	0.521
NCI-H441	1.36	1.05	1.23	1.2	1.18	0.49	0.802	0.571	0.447	0.483	0.834	0.546		0.344	0.354	0.205	0.204	0.204	0.17	0.257
NCI-H460	0.625	0.921	0.665	0.661	0.876	1.18	1.27	1.19	1.06	0.913	0.563	0.601	0.311	0.036	0.0635	0.145	0.199	0.174	0.152	0.166
NCI-H647	0.415	0.366	0.465	0.593	0.587	1.05		1.06	1.11	1.08	0.338	0.267	0.29	0.146	0.0969	0.518	0.345	0.346	0.292	0.374
NCI-H727	0.595	0.612	0.841	0.47	0.443	0.518	0.473	0.393	0.728	0.454	0.609	0.666	0.586	0.478	0.502	0.688	0.644	0.526	0.576	0.661
NCI-H838	0.984	1.05	0.907	0.915	1.06	1.19	1.24	1.31	1.19	1.11	0.259	0.277	0.237	0.196	0.174	0.231	0.22	0.215	0.178	0.218
NCI-H1355	0.776	0.912	0.845	0.66	0.799	1	0.989	1.07	0.897	0.979	0.654	0.652	0.582	0.563	0.569	0.412	0.387	0.407	0.373	0.368
NCI-H1395	0.402		0.419	0.434	0.393	1.24		1.12	1.04	1.09	0.916	0.799	0.701	0.38	0.493	0.598	0.596	0.637		0.665
